Legend:
[1] = test system: PC3-luc cells; assay: PCa intracardiac injection model, bone destruction by CT and survival; assay type: in vivo, mice
[2] = test system: RAW 267.4 cells; assay: Osteo Assay pit formation, osteoclast-mediated bone degradation; assay type: cell-based, mouse
[3] = test system: prostate specific antigen (PSA); assay: PSA expression by qRT/PCR in LNCaP cells; assay type: cell-based, human; conditions: LNCaP cells in androgen depleted media
Procedure: (§1) Cells were cultured in media depleted of androgen and after a washout of 72 hrs were treated with the synthetic androgen R1881, KBU2046, enzalutamide and/or vehicle (control), and resultant effects upon induction of the androgen-responsive gene, prostate specific antigen (PSA) were measured (FIG. 3A).
(§2) LNCaP or VCaP cells cultured in hormone free media were treated with R1881 (R), KBU2046 (46) and/or enzalutamide (E). (FIGS. 3A and 3B) Effects on AR-responsive gene expression. PSA expression was measured by qRT/PCR, normalized to GAPDH and expressed as a percent of control cells (N=3 replicates); * denotes P<0.05 for groups separated by bar. (FIGS. 3C and 3D) Effects on cell growth. Three day growth assays were performed. Data are the number of viable cells, expressed as % of control (N=3 replicates); * P<0.05 compared to control. (E) Effects on AR activation. Western blots of nuclear (N) and cytoplasmic (C) preparations of cell extracts were probed for AR, laminin 1 or α-tubulin. (FIGS. 3F and 3G) Effects on tumor outgrowth after androgen deprivation therapy. LNCaP/AR-luc cells were implanted subcutaneously (N=6 mice/cohort) or orthotopic (N=15 mice/cohort were implanted; N=5 yielded tumors) into castrate mice, treatment with KBU2046 began as noted, and weekly IVIS imaging performed. Data are tumor size, expressed as luminescence intensity. All data are expressed as mean±SEM.
(§3) RNA was isolated and qRT/PCR performed as previously described by us (Ding et al., J Biomol Tech 18, 321-330 (2007)). Resultant data were analyzed using the 2^−ΔΔt method (Livak et al., Methods 25, 402-408 (2001)), normalized to GAPDH, for the following primer/probe sets (ABI) PSA (Hs02576345_m1) and GAPDH (Hs99999905_m1). Assays were performed in triplicate, and were repeated.

[4] = test system: prostate specific antigen (PSA); assay: PSA expression by qRT/PCR in VCaP cells; assay type: cell-based, human; conditions: VCaP cells in androgen depleted media
Procedure: as §1, §2, §3

[5] = test system: RAW 267.4 cells; assay: Osteoclast morphology and maturation (actin/DAPI immunofluorescence, TRAP staining); assay type: cell-based, mouse; conditions: Raf1-specific inhibitors; TRAP staining, multinucleated cells, resorptive cavity formation
Text: Treatment of RAW 267.4 cells with KBU2046 induces several structural and functional changes. It reduces RANKL-mediated formation of multinucleated cells, and those that do form have lower numbers of nuclei (see 40× panels, FIG. 4B). The characteristic prominent actin ring (white arrow) surrounding the resorptive cavity (yellow arrow) is readily apparent in control cells treated with RANKL ligand, but is lacking in KBU2046-treated cells (100×, panels). Consistent with it inhibiting maturation of RAW 267.4 cells, TRAP staining is decreased in KBU2046-treated cells (FIG. 4C).
FIG. 4 represents the KBU2046 inhibition of osteoclast function. FIG. 4A compares effects on Raf1 activation. RAW 267.4 cells were treated with RANKL for 4 days, treated with 10 μM KBU2046 for the indicated time periods, and Western blot for the denoted proteins performed. (B) Effects on cell morphology. RAW 267.4 cells were treated with RANKL and with KBU2046 for 4 days, or not, and denoted, and stained for actin (green) and DAPI (blue); white arrow denotes an actin ring, yellow arrow a resorptive cavity. Representative immunofluorescent images are depicted. (C) Tartrate resistant acid phosphatase (TRAP) expression. Cells were treated as in B, stained for TRAP (denoted by presence of red), and representative images from light microscopy depicted. (D) Bone degradation. RAW 267.4 cells were plated onto Osteo Assay plates, treated with RANKL for 6 days and with KBU2046 (or vehicle for controls) as indicated and bone surface area quantified. Data are the mean±SEM (N=3 replicates) of bone surface area, expressed as the percentage of control cells; * denotes P<0.05 compared to control.
Raw 264.7 cells were grown in differentiation medium (described below), with or without KBU2046, for 4 days on a Chamber Slide (Nunc Lab-Tek). Chambers were washed once with PBS, followed by 10-minute fixation in cold 10% neutral-buffered formalin (VWR) and a post-fixation wash with PBS. […] The cells were then incubated for 2 hours at 4° C. in Dylight Phallodin (Cell Signaling technology, #12935) antibody diluted 1:40 in 1×PBS with 1% BSA and 0.3% Triton X-100. Subsequently, the slide was washed once with PBS, a coverslip mounted with ProLong Gold Antifade Reagent with DAPI (Cell Signaling Technology, #8961), and imaged on a Confocal Microscope (Nikon/Yokogawa Spinning Disc).

[6] = experimental compounds with RANKL, day 6, FIGS. 6A-6L
[7] = Raf1-specific inhibitors, Supplementary Fig. S5

Compound: O=C(CCOCCNC(=O)COc1ccc2c(c1)OCC(c1ccc(F)cc1)C2=O)NCCCC(O)(P(=O)(O)O)P(=O)(O)O (centres unmarked) [Compound E (n=1), (4-(3-(2-(2-((3-(4-fluorophenyl)-4-oxochroman-7-yl)oxy)acetamido)ethoxy)propanamido)-1-hydroxybutane-1,1-diyl)bis(phosphonic acid)]
- survival ([1]; 10, 100 or 1000 ug/kg weekly intraperitoneal, from 1 week before IC injection): prolongs
- bone destruction in the jaw ([1]; 10, 100 or 1000 μg/kg weekly intraperitoneal, from 1 week before IC injection, CT): inhibits
- osteoclast-mediated bone degradation [2, 6]: inhibiting

Compound: O=C(CCOCCOCCNC(=O)COc1ccc2c(c1)OCC(c1ccc(F)cc1)C2=O)NCCCC(O)(P(=O)(O)O)P(=O)(O)O (centres unmarked) [Compound E (n=2), (1-((3-(4-fluorophenyl)-4-oxochroman-7-yl)oxy)-17-hydroxy-2,12-dioxo-6,9-dioxa-3,13-diazaheptadecane-17,17-diyl)bis(phosphonic acid)]
- osteoclast-mediated bone degradation [2, 6]: inhibiting

Compound: O=C(CCOCCOCCOCCCNC(=O)COc1ccc2c(c1)OCC(c1ccc(F)cc1)C2=O)NCCCC(O)(P(=O)(O)O)P(=O)(O)O (centres unmarked) [Compound E (n=3), (1-((3-(4-fluorophenyl)-4-oxochroman-7-yl)oxy)-21-hydroxy-2,16-dioxo-7,10,13-trioxa-3,17-diazahenicosane-21,21-diyl)bis(phosphonic acid)]
- osteoclast-mediated bone degradation [2, 6]: inhibiting

Compound: O=C(CCOCCNC(=O)COc1ccc2c(c1)OCC(c1ccc(F)cc1)C2=O)NCC(O)C[n+]1ccn(CC(O)(P(=O)(O)O)P(=O)(O)O)c1 (centres unmarked) [Compound G, 3-(3-(3-(2-(2-((3-(4-fluorophenyl)-4-oxochroman-7-yl)oxy)acetamido)ethoxy)propanamido)-2-hydroxypropyl)-1-(2-hydroxy-2,2-diphosphonoethyl)-1H-imidazol-3-ium]
- osteoclast-mediated bone degradation [2, 6]: inhibiting

Compound: O=C(CCOCCOCCOCCNC(=O)COc1ccc2c(c1)OCC(c1ccc(F)cc1)C2=O)NCC(O)C[n+]1ccn(CC(O)([PH](=O)O)P(=O)(O)O)c1 (centres unmarked) [Compound H, (2-(3-(1-((3-(4-fluorophenyl)-4-oxochroman-7-yl)oxy)-15-(I1-oxidaneyl)-2,12-dioxo-6,9-dioxa-3,13-diazahexadecan-16-yl)-1H-3I4-imidazol-1-yl)-1-hydroxyethane-1,1-diyl)bis(hydrogen phosphonate)]
- osteoclast-mediated bone degradation [2, 6]: inhibiting

Compound: O=C(CCOCCOCCOCCOCCNC(=O)COc1ccc2c(c1)OCC(c1ccc(F)cc1)C2=O)NCC(O)C[n+]1ccn(CC(O)([PH](=O)O)P(=O)(O)O)c1 (centres unmarked) [Compound I, (2-(3-(1-((3-(4-fluorophenyl)-4-oxochroman-7-yl)oxy)-18-(I1-oxidaneyl)-2,15-dioxo-6,9,12-trioxa-3,16-diazanonadecan-19-yl)-1H-3I4-imidazol-1-yl)-1-hydroxyethane-1,1-diyl)bis(hydrogen phosphonate)]
- osteoclast-mediated bone degradation [2, 6]: inhibiting

Compound: C[C@]1(O)CC[C@H]2[C@@H]3CCC4=CC(=O)CCC4=C3C=C[C@@]21C [Compound R1881]
- PSA expression [3]: significantly increased
- PSA expression [4]: significantly increased

Compound: O=C1Nc2ccc(I)cc2/C1=C/c1cc(Br)c(O)c(Br)c1 [GW5074]
- RANKL-induced osteoclast maturation [5]: inhibit
- osteoclast-mediated bone degradation [2, 7]: inhibit

Compound: Cc1ccc(C(=O)Nc2cccc(C(F)(F)F)c2)cc1Nc1nc(-c2cccnc2)nc2c1cnn2C [NVP-BHG712]
- RANKL-induced osteoclast maturation [5]: inhibit
- osteoclast-mediated bone degradation [2, 7]: inhibit

Compound: O=P(O)(O)C(O)(Cn1ccnc1)P(=O)(O)O [ZA, zoledronic acid]
- improvement of femur bone density compared to control ([1]; oral 150 mg KBU2046/kg daily, intraperitoneal ZA 100 μg/kg weekly, CT): 56±2.7%

Compound: Cc1ccc(NC(=O)c2cccc(N(C)C)c2)cc1NC(=O)c1ccc(O)cc1 [ZM336372]
- RANKL-induced osteoclast maturation [5]: inhibit
- osteoclast-mediated bone degradation [2, 7]: inhibit
